This assay relates to α7 integrin promoter. The assay is described as follows: muscle cell-based assay: α7βgal+/− myoblasts/myotubes, LacZ reporter, β-galactosidase cleavage of FDG. Set-up: species or system mouse; Results in α7+/− β-galactosidase assay: scale not given here. As to conditions: Myoblasts. The method, boiled down: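 Fluorescein generated from FDG by β-galactosidase reports α7 integrin promoter activity in differentiated myoblasts from α7+/− LacZ knock-in pups. Screening hits then went to dose-response, western blotting and a myostatin counterscreen.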

Each structure is given as a SMILES string.

Experimental findings from patent publication US10028992B2, “Methods of treating muscular dystrophy” (BOARD OF REGENTS OF THE NEVADA SYSTEM OF HIGHER EDUCATION …, priority 2012, dated 2018) are described below.

`CNC(=O)CSc1nnc(-c2ccc3c(c2)OCO3)n1C` [drawing 536]: the “Results in α7+/− β-galactosidase assay” value (0.5 uM) stood at 0.1583; the “Results in α7+/− β-galactosidase assay” value (1 uM) worked out at 0.04195; the “Results in α7+/− β-galactosidase assay” value (5 uM) is 0.03203; the “Results in α7+/− β-galactosidase assay” value (10 uM) worked out at 0.03846; the “Results in α7+/− β-galactosidase assay” value (20 uM) was −0.04001; the “Results in α7+/− β-galactosidase assay” value (40 uM) is −0.01341.

In the case of `Cc1ccccc1NC(=O)NCCCN1CCN(C)CC1` [drawing 537], the “Results in α7+/− β-galactosidase assay” value is, setting by setting: (0.5 uM) 0.06224; (1 uM) 0.06912; (5 uM) 0.01544; (10 uM) −0.04766; (20 uM) 0.09447; (40 uM) 0.1887.

For `CC1(C)Cc2c(c(N3CCOCC3)nc3sc(C(=O)Nc4ccccc4)c(N)c23)CO1` [drawing 538], the “Results in α7+/− β-galactosidase assay” value runs as follows: (0.5 uM) 0.2085; (1 uM) 0.2916; (5 uM) −0.3961; (10 uM) −0.7131; (20 uM) −0.4322; (40 uM) −0.3536.

Regarding `COc1ccc(N2CCN(C(=O)c3cc(C)on3)CC2)cc1` [drawing 539], the “Results in α7+/− β-galactosidase assay” value was found to be 0.06118 (0.5 uM); 0.157 (1 uM); 0.07966 (5 uM); 0.01243 (10 uM); 0.1011 (20 uM); 0.07367 (40 uM).

For the compound `CCOn1c(=O)c(-c2ccccc2)[n+]([O-])c2ccccc21` [drawing 540], the “Results in α7+/− β-galactosidase assay” value is 0.2811 (0.5 uM); 0.2862 (1 uM); 0.8432 (5 uM); −0.07816 (10 uM); 0.1113 (20 uM); 0.0836 (40 uM).

Take `O=S(=O)(N/C(=N/C1CCCCC1)c1ccccc1F)c1ccccc1` [drawing 542]: the “Results in α7+/− β-galactosidase assay” value is 0.02381 (0.5 uM); 0.1877 (1 uM); 0.03277 (5 uM); 0.0429 (10 uM); 0.04651 (20 uM); 0.01846 (40 uM).

Turning to `CCCCNc1nnc(Cc2ccc(Cl)cc2)c(O)n1` [drawing 543], the “Results in α7+/− β-galactosidase assay” value was 0.1426 (0.5 uM); 0.2067 (1 uM); −0.06804 (5 uM); −0.2224 (10 uM); −0.259 (20 uM); −0.2813 (40 uM).

Turning to `CC(C)CN(C(=O)c1cccc(Cl)c1)c1c(N)n(Cc2ccccc2)c(=O)[nH]c1=O` [drawing 544], the “Results in α7+/− β-galactosidase assay” value was 0.1169 (0.5 uM); 0.2337 (1 uM); 0.01239 (5 uM); −0.05318 (10 uM); −0.1028 (20 uM); −0.2221 (40 uM).

`Cc1nc(O)nc(O)c1S(=O)(=O)Nc1ccc(F)cc1Cl` [drawing 545]: the “Results in α7+/− β-galactosidase assay” value by setting is: (0.5 uM) 0.03945; (1 uM) 0.1557; (5 uM) 0.0782; (10 uM) −0.00196; (20 uM) 0.02136; (40 uM) −0.01244.

Take `Cc1nnc(-c2ccc(N3CCOCC3)c([N+](=O)[O-])c2)o1` [drawing 546]: the “Results in α7+/− β-galactosidase assay” value reads like this: (0.5 uM) −0.06474; (1 uM) −0.06237; (5 uM) −0.05162; (10 uM) −0.06761; (20 uM) −0.1275; (40 uM) −0.08865.

In the case of `Cc1cc(C)cc(OCC(=O)N/N=C/c2ccccn2)c1` [drawing 547], the “Results in α7+/− β-galactosidase assay” value by setting is: (0.5 uM) 0.02525; (1 uM) 0.04969; (5 uM) 0.0722; (10 uM) −0.00591; (20 uM) 0.8477; (40 uM) −0.1757.

As for `O=C1Nc2ccccc2/C1=C/c1c[nH]c(-c2ccccc2)n1` [drawing 548], the “Results in α7+/− β-galactosidase assay” value by setting is: (0.5 uM) 0.05646; (1 uM) 0.09843; (5 uM) 0.2266; (10 uM) 0.1719; (20 uM) 0.06424; (40 uM) 0.08092.

With `O=C(c1ccccc1)N1CCN(S(=O)(=O)c2cccs2)CC1` [drawing 549], the “Results in α7+/− β-galactosidase assay” value (0.5 uM) came out at 0.05147; the “Results in α7+/− β-galactosidase assay” value (1 uM) is reported as 0.1507; the “Results in α7+/− β-galactosidase assay” value (5 uM) worked out at 0.1856; the “Results in α7+/− β-galactosidase assay” value (10 uM) was −0.01279; the “Results in α7+/− β-galactosidase assay” value (20 uM) was 0.05474; the “Results in α7+/− β-galactosidase assay” value (40 uM) worked out at 0.09083.

In the case of `COc1ccccc1C(=O)Nc1ccnn1C1CCN(C(=O)c2ccoc2)CC1` [drawing 551], the “Results in α7+/− β-galactosidase assay” value is −0.09644 (0.5 uM); −0.04841 (1 uM); 0.05814 (5 uM); 0.02292 (10 uM); 0.01412 (20 uM); −0.05323 (40 uM).

For the compound `CCOC(=O)c1nnn(-c2nonc2OC)c1-c1ccccc1` [drawing 552], the “Results in α7+/− β-galactosidase assay” value by setting is: (0.5 uM) 0.01584; (1 uM) 0.107; (5 uM) 0.07484; (10 uM) −0.08302; (20 uM) 0.003125; (40 uM) −0.1081.

With `CC(C)(C)Nc1nc(-c2ccc3c(c2)CCN3C(=O)C2CC2)cs1` [drawing 553], the “Results in α7+/− β-galactosidase assay” value reads like this: (0.5 uM) 0.1228; (1 uM) 0.2827; (5 uM) 0.1111; (10 uM) −0.01717; (20 uM) −0.1366; (40 uM) −0.2135.

With `CCN(C(=O)c1ccc(S(=O)(=O)N(C)C)cc1)C(C)C(=O)Nc1ccc(C)cc1` (stereo not drawn) [drawing 556], the “Results in α7+/− β-galactosidase assay” value runs as follows: (0.5 uM) −0.05004; (1 uM) −0.1349; (5 uM) −0.02565; (10 uM) 0.2444; (20 uM) −0.07832; (40 uM) −0.2867.

As for `COc1cc(NC(=O)OCc2ccccc2)c2ncccc2c1` [drawing 557], the “Results in α7+/− β-galactosidase assay” value (0.5 uM) is 0.0156; the “Results in α7+/− β-galactosidase assay” value (1 uM) was −0.08284; the “Results in α7+/− β-galactosidase assay” value (5 uM) is reported as 0.01997; the “Results in α7+/− β-galactosidase assay” value (10 uM) came out at 0.2347; the “Results in α7+/− β-galactosidase assay” value (20 uM) is −0.06526; the “Results in α7+/− β-galactosidase assay” value (40 uM) was −0.1686.

With `Cc1ccc2c(c1)/C(=C/c1ccccc1C)C(=O)N2` [drawing 558], the “Results in α7+/− β-galactosidase assay” value reads like this: (0.5 uM) 0.05088; (1 uM) −0.09662; (5 uM) −0.07445; (10 uM) 0.08015; (20 uM) −0.3519; (40 uM) −0.675.

Regarding `O=C(NCCc1ccccc1)C1CCC(=O)N1C1CCCC1` (stereo not drawn) [drawing 559], the “Results in α7+/− β-galactosidase assay” value reads like this: (0.5 uM) −0.1018; (1 uM) −0.1461; (5 uM) 0.003015; (10 uM) 0.245; (20 uM) 0.1433; (40 uM) 0.02863.

`CCCN(C(=O)c1ccc(S(=O)(=O)N2CCCC2)cc1)C1CCS(=O)(=O)C1` (stereo not drawn) [drawing 560]: the “Results in α7+/− β-galactosidase assay” value reads like this: (0.5 uM) −0.1431; (1 uM) −0.1722; (5 uM) −0.06143; (10 uM) 0.1978; (20 uM) 0.07259; (40 uM) −0.0646.

For the compound `C=CCOc1ccc(C(=O)/C=C2\C(=O)Nc3ccccc32)cc1` [drawing 561], the “Results in α7+/− β-galactosidase assay” value is reported as −0.1092 (0.5 uM); −0.1536 (1 uM); −0.257 (5 uM); −0.2991 (10 uM); −0.2121 (20 uM); −0.7606 (40 uM).

With `CCN(CC(=O)NCc1cccs1)C(=O)COc1ccc(C(N)=O)cc1` [drawing 562], the “Results in α7+/− β-galactosidase assay” value runs as follows: (0.5 uM) −0.04485; (1 uM) −0.05578; (5 uM) −0.03005; (10 uM) 0.2509; (20 uM) −0.05432; (40 uM) −0.02246.
